molecular target: T1, LFA-1 binding to immobilized ICAM-1 (Homo sapiens, UniProt P05107+P20701); assay: LFA-1/ICAM-1 protein-protein assay (solid-phase ELISA); conditions: read-out: LFA-1/ICAM-1 Protein-Protein Assay IC50
T1 construct: made in house; host or cells: transfected 293 cells (LFA-1)
Outline: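 Human 5dICAM-Ig (ICAM-1 extracellular domain–IgG Fc) coated on plates; membrane-bound LFA-1 from transfected 293 cells (280 ng/mL) added with compound in Mn2+-containing HEPES buffer pH 7.2, 2 h at 37° C. Bound LFA-1 detected via anti-β2 antibody and HRP/TMB at 450 nm; IC50s determined.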

T1 sequence (P20701 26-1170): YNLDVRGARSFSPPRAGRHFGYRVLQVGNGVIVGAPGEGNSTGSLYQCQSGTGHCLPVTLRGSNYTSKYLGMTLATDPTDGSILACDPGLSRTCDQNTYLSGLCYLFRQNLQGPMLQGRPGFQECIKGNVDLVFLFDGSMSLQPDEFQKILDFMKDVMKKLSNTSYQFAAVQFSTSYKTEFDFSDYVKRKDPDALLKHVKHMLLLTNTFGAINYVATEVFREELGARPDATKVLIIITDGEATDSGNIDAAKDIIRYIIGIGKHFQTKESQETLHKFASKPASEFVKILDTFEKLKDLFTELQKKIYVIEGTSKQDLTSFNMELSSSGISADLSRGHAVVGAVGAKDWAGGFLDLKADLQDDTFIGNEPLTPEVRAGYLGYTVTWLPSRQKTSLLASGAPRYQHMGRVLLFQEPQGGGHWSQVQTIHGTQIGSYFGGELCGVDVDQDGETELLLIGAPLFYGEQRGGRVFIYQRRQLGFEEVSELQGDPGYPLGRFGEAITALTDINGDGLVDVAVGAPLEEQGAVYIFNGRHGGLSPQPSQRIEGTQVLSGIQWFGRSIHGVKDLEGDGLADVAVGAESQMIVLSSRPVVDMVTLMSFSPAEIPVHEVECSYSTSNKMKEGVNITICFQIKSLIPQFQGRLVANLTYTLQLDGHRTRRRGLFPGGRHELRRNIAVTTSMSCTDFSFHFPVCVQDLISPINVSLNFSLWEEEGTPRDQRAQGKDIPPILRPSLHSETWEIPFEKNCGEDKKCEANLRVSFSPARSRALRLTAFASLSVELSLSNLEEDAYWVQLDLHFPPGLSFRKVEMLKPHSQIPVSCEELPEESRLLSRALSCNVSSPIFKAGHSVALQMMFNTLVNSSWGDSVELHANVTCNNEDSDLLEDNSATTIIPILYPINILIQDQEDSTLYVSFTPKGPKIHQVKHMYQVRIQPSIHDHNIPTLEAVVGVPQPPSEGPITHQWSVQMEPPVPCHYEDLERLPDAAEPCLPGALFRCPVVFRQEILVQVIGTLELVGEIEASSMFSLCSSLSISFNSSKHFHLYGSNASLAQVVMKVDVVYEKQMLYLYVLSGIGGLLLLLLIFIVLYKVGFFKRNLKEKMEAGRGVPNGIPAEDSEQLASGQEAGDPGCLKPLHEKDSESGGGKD
T1 sequence (P05107 23-769): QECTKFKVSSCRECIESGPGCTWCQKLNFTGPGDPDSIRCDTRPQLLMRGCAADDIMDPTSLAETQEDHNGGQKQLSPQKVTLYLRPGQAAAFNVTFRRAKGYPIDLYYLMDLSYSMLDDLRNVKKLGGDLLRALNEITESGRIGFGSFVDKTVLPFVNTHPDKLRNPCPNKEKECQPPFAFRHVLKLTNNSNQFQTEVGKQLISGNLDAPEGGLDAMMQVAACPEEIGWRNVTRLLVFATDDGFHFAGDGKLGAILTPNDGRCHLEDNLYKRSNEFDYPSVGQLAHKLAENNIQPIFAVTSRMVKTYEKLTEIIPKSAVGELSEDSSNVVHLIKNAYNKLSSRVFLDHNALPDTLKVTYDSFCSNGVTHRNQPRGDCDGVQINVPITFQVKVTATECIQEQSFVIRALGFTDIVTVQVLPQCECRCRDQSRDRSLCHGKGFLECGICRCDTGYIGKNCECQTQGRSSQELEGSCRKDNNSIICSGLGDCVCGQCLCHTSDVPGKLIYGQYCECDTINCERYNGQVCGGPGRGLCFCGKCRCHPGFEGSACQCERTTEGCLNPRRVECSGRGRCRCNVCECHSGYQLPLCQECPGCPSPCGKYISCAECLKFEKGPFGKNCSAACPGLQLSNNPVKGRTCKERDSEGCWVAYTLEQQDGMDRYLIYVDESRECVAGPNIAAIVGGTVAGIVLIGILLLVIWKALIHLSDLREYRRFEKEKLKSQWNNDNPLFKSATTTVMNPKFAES

Structure (SMILES)	IC50 [nM]
O=C(NCc1cccc2[nH]ccc12)c1ccc(C(=O)N[C@@H](CNC(=O)c2ccccc2)C(=O)O)c(Cl)c1 [Example 314, 3-(benzoylamino)-N-[2-chloro-4-[[(1H-indol-4-ylmethyl)amino]carbonyl]benzoyl]-L-alanine]	1.9
O=C(NCc1cccc2[nH]ccc12)c1ccc(C(=O)N[C@@H](CNC(=O)c2ccoc2)C(=O)O)c(Cl)c1 [Example 316]	1.3
Cc1ccc(C(=O)NC[C@H](NC(=O)c2ccc(C(=O)NCc3cccc4[nH]ccc34)cc2Cl)C(=O)O)s1 [Example 317]	3.5
O=C(NCc1cccc2c1CCN2)c1ccc(C(=O)N[C@@H](CNC(=O)c2cccs2)C(=O)O)c(Cl)c1 [Example 318, 3-(thiophene-2-carbonyl)amino-N-[2-chloro-4-[[(2,3-dihydro-1H-indol-4-ylmethyl)amino]carbonyl]benzoyl]-L-alanine]	1.9
O=C(CCc1cccc(O)c1)c1ccc(C(=O)N[C@@H](CNC(=O)c2cccs2)C(=O)O)c(Cl)c1 [Example 319, N-[2-chloro-4-[1-oxo-3-(3-hydroxyphenyl)propyl]benzoyl]-3-(thiophene-2-carbonyl)amino-L-alanine]	1.4
O=C(NC[C@H](NC(=O)c1ccc(-n2nnnc2NCc2cccc(O)c2)cc1Cl)C(=O)O)c1cccs1 [Example 321]	2.6
O=C(NCc1cccc2[nH]cnc12)c1ccc(C(=O)N[C@@H](CNC(=O)c2cccs2)C(=O)O)c(Cl)c1 [Example 322]	8.5
Cc1cc(C(=O)NCc2cccc(O)c2)ccc1C(=O)N[C@@H](CNC(=O)c1cccs1)C(=O)O [Example 323]	1.3
O=C(NCc1cccc2[nH]ncc12)c1ccc(C(=O)N[C@@H](CNC(=O)c2cccs2)C(=O)O)c(Cl)c1 [Example 327, N-[2-chloro-4-[[[(1H-indazol-4-yl)methyl]amino]carbonyl]benzoyl]-3-(thiophene-2-carbonyl)amino-L-alanine]	1.8
O=C(NCc1cccc2[nH]ccc12)c1ccc(C(=O)N[C@@H](CNC(=O)c2cccs2)C(=O)O)c(Br)c1 [Example 329]	2.7
Cc1cc(C(=O)NCc2cccc(O)c2)cc(C)c1C(=O)N[C@@H](CNC(=O)c1cccs1)C(=O)O [Example 330]	1.4

Results, then the molecule that gave them:

IC50 [nM]	Structure (SMILES)
4.8	C[C@@H](NC(=O)c1ccc(C(=O)N[C@@H](CNC(=O)c2cccs2)C(=O)O)c(Br)c1)c1cccc2ccccc12 [Example 332]
3.5	Cc1cc(C(=O)N[C@H](C)c2cccc3ccccc23)cc(C)c1C(=O)N[C@@H](CNC(=O)c1cccs1)C(=O)O [Example 333]
3	Nc1cccc(CNC(=O)c2ccc(C(=O)N[C@@H](CNC(=O)c3cccs3)C(=O)O)c(Br)c2)c1 [Example 334, N-[4-[[[(3-aminophenyl)methyl]amino]carbonyl]-2-bromobenzoyl]-3-(thiophene-2-carbonyl)amino-L-alanine]
2.1	Cc1cc(C(=O)NCc2cccc(O)c2)cc(C)c1C(=O)N[C@@H](CNC(=O)c1ccsc1)C(=O)O [Example 336, N-[2,6-dimethyl-4-[[[(3-hydroxyphenyl)methyl]amino]carbonyl]benzoyl]-3-(thiophene-3-carbonyl)amino-L-alanine]
3.7	Cc1cc(C(=O)NCc2cccc(O)c2)cc(C)c1C(=O)N[C@@H](CNC(=O)c1cc(F)cc(F)c1)C(=O)O [Example 337, N-[2,6-dimethyl-4-[[[(3-hydroxyphenyl)methyl]amino]carbonyl]benzoyl]-3-(3,5-difluorobenzoylamino)-L-alanine]
1.5	Cc1cc(C(=O)NCc2cccc(O)c2)cc(Cl)c1C(=O)N[C@@H](CNC(=O)c1cccs1)C(=O)O [Example 338, N-[2-chloro-4-[[[(3-hydroxyphenyl)methyl]amino]carbonyl]-6-methylbenzoyl]-3-[(thiophene-2-carbonyl)amino]-L-alanine]
1.7	Cc1cc(C(=O)NCc2cccc(O)c2)cc(Cl)c1C(=O)N[C@@H](CNC(=O)c1ccsc1)C(=O)O [Example 339, N-[2-chloro-4-[[[(3-hydroxyphenyl)methyl]amino]carbonyl]-6-methylbenzoyl]-3-[(thiophene-3-carbonyl)amino]-L-alanine]
0.3	Cc1cc(C(=O)NCc2cccc(O)c2)cc(Cl)c1C(=O)N[C@@H](CNC(=O)c1cc(F)cc(F)c1)C(=O)O [Example 340, N-[2-chloro-4-[[[(3-hydroxyphenyl)methyl]amino]carbonyl]-6-methylbenzoyl]-3-[(3,5-difluorobenzoyl)amino]-L-alanine]
1.6	O=C(NCc1cccc(O)c1)c1cc(Cl)c(C(=O)N[C@@H](CNC(=O)c2cccs2)C(=O)O)c(Cl)c1 [Example 342, N-[2,6-dichloro-4-[[[(3-hydroxyphenyl)methyl]amino]carbonyl]benzoyl]-3-[(thiophene-2-carbonyl)amino]-L-alanine]
2.5	O=C(NCc1cccc(O)c1)c1cc(Cl)c(C(=O)N[C@@H](CNC(=O)c2ccsc2)C(=O)O)c(Cl)c1 [Example 343, N-[2,6-dichloro-4-[[[(3-hydroxyphenyl)methyl]amino]carbonyl]benzoyl]-3-[(thiophene-3-carbonyl)amino]-L-alanine]
0.3	O=C(NCc1cccc(O)c1)c1cc(Cl)c(C(=O)N[C@@H](CNC(=O)c2cc(F)cc(F)c2)C(=O)O)c(Cl)c1 [Example 344, N-[2,6-dichloro-4-[[[(3-hydroxyphenyl)methyl]amino]carbonyl]benzoyl]-3-[(3,5-difluorobenzoyl)amino]-L-alanine]
0.2	O=C(NCc1cccc(O)c1)c1cc(Cl)c(C(=O)N[C@@H](CNC(=O)c2cc(O)cc(O)c2)C(=O)O)c(Cl)c1 [Example 345, N-[2,6-dichloro-4-[[[(3-hydroxyphenyl)methyl]amino]carbonyl]benzoyl]-3-(3,5-dihydroxybenzoylamino)-L-alanine]

From patent US20040006236A1, “Diaminopropionic acid derivatives” (priority 1999, published 2004)
